Assay results reported in patent publication US9695395B2, “Generation and maintenance of stem cells” (The Scripps Research Institute, priority 2008, dated 2017).

Tests used:
EpiSCs = assay: Conversion of EpiSCs to mESC-like state by chemical compounds (colony morphology, ALP, selection); type: cell-based, murine; conditions: for effect on EpiSCs under mESC culture condition supplemented with LIF: feeder cells, 0.5 μM A-83-01, 0.5 μM PD0325901, 0.1 μM PD173074, 3 μM CHIR99021 where present
Description: EpiSCs differentiated in conventional mESC growth medium supplemented with LIF (bottom left); EpiSCs differentiated in conventional mESC growth medium supplemented with LIF and 0.5 μM MEK inhibitor PD0325901, 0.1 μM FGFR inhibitor PD173074 and 3 μM GSK3 inhibitor CHIR99021 (m/MFGi) (bottom right). […] EpiSCs were trypsinized to single cells, and plated on feeder cells under the mESC self-renewal condition with supplements of the indicated chemical compounds for about 4 days to induce conversion, followed by another 4 days of selection. The culture was subsequently replated and further selected and expanded for another two weeks, during which time stable clones were picked.
To test this hypothesis, EpiSCs were trypsinized to single cells and plated under mESC self-renewal conditions, based on the notion that “converted” mESC-like cells within EpiSC colonies would be captured/selected and expanded under the conditions that promote self-renewal of mESCs but induce differentiation of EpiSCs. […] Given that the “spontaneous” conversion from EpiSCs to mESCs might be very inefficient, a stronger and more stringent differential self-renewal promoting and differentiation inducing condition might be required to select/capture and expand those “rare” converted mESC-like cells from EpiSCs (e.g. achieving cleaner phenotypic distinction and minimizing the overgrowth of differentiated EpiSCs).
EpiSCs (line EpiSC-5, male) were maintained on irradiated CF1 MEFs in human ESC medium supplemented with 10 ng/ml bFGF as described previously (Tesar et al., Nature 448, 196-199, 2007). EpiSCs were passaged every 3-4 days with 1 mg/ml collagenase type IV (Invitrogen). The R1 mESCs were cultured on irradiated CF1 MEFs with conventional mESC growth media, which consist of Knockout DMEM (Invitrogen) supplemented with 20% KSR (Invitrogen), 0.1 mM 2-ME (Sigma-Aldrich), 2 mM L-glutamine (Invitrogen), 0.1 mM NEAA (Invitrogen), and 10^3 units/ml recombinant murine leukemia inhibitory factor (LIF) (ESGRO, Millipore). The mESCs and converted cells were passaged every 3 days as a single cell suspension using 0.05% trypsin/EDTA and seeded at 1.0×10^4 cells per cm^2 for routine culture.

BMP receptors = conditions: Tojo et al., 2005; cited from earlier work
riPSCs = assay: Maintaining the pluripotency of riPSCs in culture with small molecule combinations; type: cell-based, rat; conditions: 0.1 μM, added to the combination of PD0325901 and CHIR99021
Description: FIG. 5A-B. The effects of different small molecule combinations on maintaining the pluripotency of riPSCs in culture. riPSCs were trypsinized into single cells and seeded into 6-well plate at the density of 10^3 cells per well and treated with different inhibitor combinations. Five days latter, ALP staining was performed to visualize the riPSC colonies (A). The ALP positive colonies for each condition were counted from ten random 40× visual fields and the relative colony number was summarized in (B).
WB-F344, a diploid rat liver progenitor cell line (Grisham et al., Proc Soc Exp Biol Med 204, 270-279 (1993)), were transduced with Oct4, Sox2 and Klf4 by retroviruses and then split onto MEF feeder cells in the conventional mESC medium. Compact and alkaline phosphatase (ALP) positive ESC-like colonies were observed 10 days after transduction (the efficiency is about 0.4%) (FIG. 1A). […] Given the notion that small molecules can inhibit key differentiation-inducing pathways, we and others have previously identified and used small molecules to support mESC self-renewal in a more robust manner (Schugar et al., Gene Ther 15, 126-135 (2008); Xu et al., Nat Biotechnol 20, 1261-1264 (2002)). […]

Q: With Cc1cccc(-c2nn(C(=S)Nc3ccccc3)cc2-c2ccnc3ccccc23)n1 [A-83-01, 3-(6-Methyl-2-pyridinyl)-N-phenyl-4-(4-quinolinyl)-1H-pyrazole-1-carbothioamide] as the compound, how does the “effect on EpiSCs under EpiSC/hESC culture condition supplemented with bFGF” value (EpiSCs; 0.5 μM) read?
A: induced rapid differentiation of EpiSCs

Q: And the “colonies that could self-renew and maintain ALP activity” value (EpiSCs; A-83-01 treated colonies exposed to 2PD/LIF condition for selection)?
A: more than 50%

Q: And the “effect on EpiSCs under mESC culture condition supplemented with LIF” value (EpiSCs)?
A: form more compact and domed colonies that resemble mESC colony morphology and express ALP

Q: What about the “cross inhibitory effect on the BMP receptors” value (BMP receptors) of the same compound?
A: no cross inhibitory effect

Q: For Cc1c[nH]c(-c2cnc(NCCNc3ccc(C#N)cn3)nc2-c2ccc(Cl)cc2Cl)n1 [CHIR99021], which “effect of adding CHIR99021 to the 2PD/LIF condition” value (EpiSCs; 3 μM CHIR99021) is on record?
A: did not promote or capture the conversion of EpiSCs to mESC-like state

Q: With CCN(CC)CCCCNc1ncc2cc(-c3cc(OC)cc(OC)c3)c(NC(=O)NC(C)(C)C)nc2n1 [PD173074] as the compound, how does the “effect of including PD173074 in medium” value (riPSCs) read?
A: didn't show further benefit

Q: Which “effect on EpiSCs under mESC culture condition supplemented with LIF” value (EpiSCs) does the source give for N[C@@H]1C[C@H]1c1ccccc1 [parnate] here?
A: form more compact and domed colonies that express ALP

Q: And the “EpiSCs that formed small and compact colonies” value (EpiSCs; four days of 2 μM parnate treatment, mESC growth condition)?
A: 70-80%

Q: What about the “cells that survived the selection as domed and ALP positive colonies” value (EpiSCs; parnate-treated cells selected with 2PD/LIF) of the same compound?
A: roughly 20%
